Legend:
SMAD3 phosphorylation = assay: Cardiac PK/PD: systemic target engagement, pSMAD3/tSMAD3 in heart by Meso-Scale Discovery; type: in vivo, C57bl/6n mice; conditions: mice, oral aspiration 2 or 4 hours prior to harvest; TGF-β1 i.v. challenge; heart samples
Protocol: C57bl/6n mice were acclimated for at least 3 days before use. On the day of the experiment, animals were grouped into sample sizes of 5-10. Test compounds were pre-treated via oral aspiration (OA; animals are forced to aspirate solution into the lungs by covering their nose). All oral aspirations were performed using a 50 μL dosing volume and accompanied by a vehicle control group (3% glycerol in PBS, pH=4). Following compound OA treatment, the animals were returned to their home cages and monitored. Compound pre-treatment occurred either 2 or 4 hours prior to harvest. One hour prior to harvest, animals were challenged via tail-vein intravenous injection with PBS vehicle or recombinant human TGF-β1 protein (1 μg per animal dissolved in 1 part 4 mM HCl and 2 parts 3% glycerol in PBS). Five minutes prior to harvest, animals were deeply anesthetized under isoflurane and euthanized via cervical dislocation. Plasma, left lung lobes and whole hearts were collected during harvest.
Blood plasma was harvested as described above in the Lung PK/PD experiment. Whole hearts were processed in the same manners as left lung lobes in the Lung PK/PD experiment. Left lung lobes were homogenized in 500 μL of water and submitted for BA Analysis.
Heart samples were processed using MSD in the same manner as the left lung lobes above. […] Plasma, lung and heart drug concentrations were quantified.

[1] = test system: syngeneic cancer models (4T1 cells, CT26 cells); assay: Efficacy study in syngeneic cancer model (4T1 or CT26 cells); type: in vivo, BALB/c mice
From the text: The compound of Formula I is expected to suppress tumor growth in syngeneic cancer models when administered alone or in combination with an immunotherapeutic agent. Six- to 8-week old BALB/c mice are used for in vivo efficacy studies in accordance with IACUC guidelines. Commercially available 4T1 cells (0.5-2.0×10^4 cells/mouse) are implanted subcutaneously into the right flanks of BALB/c mice. When the tumor reaches a palpable size of approximately 8-10 mm in diameter, the primary tumors are surgically removed, and the mice are randomly assigned to vehicle control or compound treatment groups. Alternatively, CT26 cells (0.5-2.0×10^4 cells/mouse) are injected intravenously into BALB/c mice to generate the cancer model. […]
Body weight is measured twice weekly. Following 2- to 4-weeks of treatment, the lung and liver of each animal is harvested, and the number of metastatic cells in each tissue sample determined using a clonogenic metastasis assay. […]

[2] = test system: DSS-induced intestinal fibrosis; assay: Efficacy study in murine DSS-induced intestinal fibrosis model; type: in vivo, C57BL/6J mice; conditions: oral gavage following the second of the 3 cycles of DSS; sacrifice at 6, 9 or 12 weeks
Protocol: The compound of Formula I is expected to slow, halt or reverse the progression of intestinal fibrosis in a murine colitis model. Six to 8-week old male C57BL/6J mice are tagged and weighed. The drinking water of the animals is treated with 2.5% dextran sulfate sodium (DSS) for 7 days to induce acute colitis, followed by 2 days of normal drinking water. Three, 3-week cycles of 2.5% DSS treatment (1 week of 2.5% DSS in water; 2 weeks of normal water) are then completed to induce intestinal fibrosis. Following the second of the 3 cycles of DSS administration, mice are treated with either vehicle control or the compound of Formula I at an appropriate amount and frequency via oral gavage (e.g., once daily). Animals are sacrificed at either 6, 9 or 12 weeks after the first DSS cycle, then distal, mid and proximal sections of the colon harvested for histologic analysis, RNA extraction and cytokine measurement.

## C[C@@H]1CN(CCNc2cnc3ccc(-c4nc[nH]c4-c4cc(Cl)ccc4F)nc3c2)C[C@H](C)N1 [compound of Formula I, 6-(5-(5-chloro-2-fluorophenyl)-1H-imidazol-4-yl)-N-(2-((3S,5R)-3,5-dimethylpiperazin-1-yl)ethyl)-1,5-naphthyridin-3-amine]
SMAD3 phosphorylation
  systemic target engagement, as measured by SMAD3 phosphorylation inhibition: minimal target engagement systemically
[1]; combination with immunotherapeutic agent (e.g., pembrolizumab or durvalumab), relative to either single agent alone
  lung tumor burden in combination with an immunotherapeutic agent: increased reduction in lung tumor burden
[1]; compound alone, oral aspiration or intranasally, 2- to 4-weeks of treatment
  lung tumor burden: reduction in lung tumor burden
[2]
  intestinal fibrosis: slow, halt or reverse intestinal fibrosis
